Targets include A*0206 (Homo sapiens, UniProt P04439, D140Y/D185E/D98H/E176V/E277Q/F33Y/G131W/G231S/I119V/I121R/I166T/I218V/L300P/L318F/N151K/N90K/P208A/P217A/Q86G/Q94H/R138H/R169H/T345S); HLA-A*0201 (HLA-A2.1) (Homo sapiens, UniProt P04439, D140Y/D185E/D98H/E176V/E277Q/G131W/G231S/I119V/I121R/I166T/I218V/L300P/L318F/N151K/N90K/P208A/P217A/Q86G/Q94H/R138H/R169H/T345S); A*0203 (Homo sapiens, UniProt P04439, A173T/D140Y/D185E/D98H/E277Q/G131W/G231S/I119V/I121R/I166T/I218V/L180W/L300P/L318F/N151K/N90K/P208A/P217A/Q86G/Q94H/R138H/R169H/T345S); A*0202 (Homo sapiens, UniProt P04439, D140Y/D185E/D98H/E176V/E277Q/G131W/G231S/I119L/I121R/I166T/I218V/L180W/L300P/L318F/N151K/N90K/P208A/P217A/Q67R/Q86G/Q94H/R138H/R169H/T345S); A*6802 (Homo sapiens, UniProt P04439, A269V/D140Y/D185E/E176V/E277Q/E87N/F33Y/G231S/I121R/I166T/I218V/L180W/L300P/L318F/N151K/P208A/P217A/Q86R/R138H/R169H/S129P/T345S/V36M).

Test in all cases: biochemical
Assay type in all cases: binding

The text below walks through data of patent publication US9340577B2, “HLA binding motifs and peptides and their uses” (priority 1992, dated 2016).

No end group written: not given here. Bounds are passed on as bounds.

The term IC50 denotes the point on the concentration scale where inhibition reaches its midpoint. A low value points to greater potency. Regarding RMLQQLLFI [Peptide 1525.12], the IC50 against A*0206 was determined as 16 nM; on HLA-A*0201 (HLA-A2.1) it was 15 nM; against A*0203, 12 nM; at A*0202 it was 128 nM; on A*6802 it was 18700 nM.
The corresponding values for VLEGKEVLLLV [Peptide 9013.0273] are 4610 nM, 1840 nM, 272 nM, 32 nM and > 20000 nM.
The like results for KTITVSAEV [Peptide 9013.0083] were, in that order, 79 nM, 971 nM, 2.6 nM, 42 nM and 15 nM.
The corresponding values for PQYSWRINGV [Peptide 9013.0235] are > 20000 nM, > 20000 nM, 25 nM, 1330 nM and > 20000 nM.
For GLNRTTVTV [Peptide 9013.0066], the IC50 against A*0206 is 4730 nM; on HLA-A*0201 (HLA-A2.1), 109 nM; at A*0203 it was 3.8 nM; at A*0202, 10 nM; at A*6802, > 20000 nM.
The corresponding values for TLTTITVYA [Peptide 9013.0069] are 666 nM, 14 nM, 2.6 nM, 0.75 nM and 5 nM.
On to RILQHLLFA [Peptide 1525.24], for which the half-inhibitory concentration (IC50) was 11 nM on A*0206; 160 nM at HLA-A*0201 (HLA-A2.1); 51 nM on A*0203; 220 nM on A*0202; > 20000 nM against A*6802.
The corresponding values for ALYSWFVNGT [Peptide 9013.0173] are 875 nM, 661 nM, 3.6 nM, 8.9 nM and > 20000 nM.
The like results for LLLTASLLV [Peptide 9013.0002] were, in that order, 79 nM, 28 nM, 293 nM, 1330 nM and > 20000 nM.
The like results for ALNTTYLWWV [Peptide 9013.0217] were, in that order, 578 nM, 223 nM, 5.6 nM, 48 nM and 7700 nM.
As for TAKLTIESV [Peptide 9013.0009], the 50% inhibitory concentration (IC50) on A*0206 was 10700 nM; against HLA-A*0201 (HLA-A2.1) it was > 20000 nM; at A*0203 it was 216 nM; at A*0202, 480 nM; on A*6802 it was 243 nM.
The like results for VQWAFDNEL [Peptide 86.0182] were, in that order, 256 nM, 3230 nM, 449 nM, 319 nM and > 20000 nM.
For the compound FLSYFKLFL [Peptide 1578.37], the half-inhibitory concentration (IC50) against A*0206 is 45 nM; at HLA-A*0201 (HLA-A2.1), 30 nM; at A*0203, 8.6 nM; at A*0202, 2.1 nM; on A*6802, 4750 nM.
The corresponding values for RTLQQLLFI [Peptide 1525.11] are 89 nM, 152 nM, 1660 nM, > 20000 nM and > 20000 nM.
The corresponding values for FLQSTQELFI [Peptide 9013.0179] are 1110 nM, 95 nM, 59 nM, 3.7 nM and > 20000 nM.
The like results for ALYWYRTGL [Peptide 1578.30] were, in that order, 11500 nM, 5070 nM, 23 nM, 8.2 nM and > 20000 nM.
QLSNGNRTLV [Peptide 9013.0229]: the IC50 is > 20000 nM against A*0206; > 20000 nM against HLA-A*0201 (HLA-A2.1); 146 nM at A*0203; 66 nM against A*0202; > 20000 nM at A*6802.
For the compound FLQGAIISFV [Peptide 1578.27], the concentration for half-maximal inhibition (IC50) at A*0206 amounted to 69 nM; at HLA-A*0201 (HLA-A2.1) it was 45 nM; at A*0203, 6.6 nM; against A*0202, 0.65 nM; at A*6802, 86 nM.
The corresponding values for TILQQLLFI [Peptide 1525.26] are 91 nM, 95 nM, 367 nM, 2790 nM and 7030 nM.
The corresponding values for FIQGAVISFV [Peptide 1578.12] are 345 nM, 255 nM, 18 nM, 12 nM and 394 nM.
The like results for FLQGSVICFV [Peptide 1578.05] were, in that order, 73 nM, 41 nM, 9.1 nM, 3.5 nM and 380 nM.
Consider FQYAQLADV [Peptide 1578.36], for which the concentration for half-maximal inhibition (IC50) against A*0206 was 32 nM; on HLA-A*0201 (HLA-A2.1), 42 nM; against A*0203, 12 nM; against A*0202 it was 3.7 nM; against A*6802, 16900 nM.
The like results for RMLQHLLFI [Peptide 1545.04] were, in that order, 14 nM, 16 nM, 4 nM, 10 nM and > 20000 nM.
Take FLSHVKIPV [Peptide 1578.55]: the IC50 against A*0206 came out at 91 nM; at HLA-A*0201 (HLA-A2.1), 41 nM; on A*0203, 9.8 nM; against A*0202 it was 4 nM; at A*6802 it was 60 nM.
Turning to LLIESTPFNVA [Peptide 9013.0268], the IC50 at A*0206 is 107 nM; against HLA-A*0201 (HLA-A2.1) it was 121 nM; on A*0203, 3.5 nM; at A*0202 it was 3.3 nM; against A*6802, > 20000 nM.
The like results for VLAEAMSRV [Peptide 1516.10] were, in that order, 75 nM, 40 nM, 3.7 nM, 2.6 nM and 487 nM.
The like results for YVIGTQQAV [Peptide 9013.0024] were, in that order, 84 nM, 160 nM, 6.2 nM, 3.2 nM and 3 nM.
With FLGALKSFV [Peptide 1593.56], the IC50 at A*0206 turned out to be 79 nM; against HLA-A*0201 (HLA-A2.1), 93 nM; on A*0203 it was 1.1 nM; against A*0202 it was 1.1 nM; on A*6802, 822 nM.
Regarding RLTVTTITVYA [Peptide 9013.0305], the half-inhibitory concentration (IC50) came out at 1100 nM at A*0206; 243 nM on HLA-A*0201 (HLA-A2.1); 205 nM against A*0203; 23 nM at A*0202; 53 nM against A*6802.
Take TLKLTIEST [Peptide 9013.0010]: the IC50 on A*0206 is > 20000 nM; against HLA-A*0201 (HLA-A2.1), 18300 nM; at A*0203, 24 nM; against A*0202 it was 80 nM; at A*6802, > 20000 nM.
Regarding `CC(C)C[C@H](NC(=O)[C@@H](N)CCCNC(=N)N)C(=O)N1CCC[C@H]1C(=O)N[C@@H](CCC(=O)O)C(=O)N[C@@H](C)C(=O)N[C@@H](C)C(=O)N1CCC[C@H]1C(=O)N1CCC[C@H]1C(=O)N[C@H](C(=O)N[C@H](C(=O)O)C(C)C)C(C)C` [Peptide 1323.17], the 50% inhibitory concentration (IC50) was 240 nM on A*0206; 152 nM against HLA-A*0201 (HLA-A2.1); 18 nM against A*0203; 32 nM against A*0202; > 20000 nM against A*6802.
The corresponding values for IVNTTYLWWV [Peptide 9013.0196] are 91 nM, 5940 nM, 389 nM, 1440 nM and 71 nM.
The corresponding values for LIQPFILYA [Peptide 1578.07] are 71 nM, 124 nM, 46 nM, 70 nM and 8630 nM.
On to IQNDTGFYV [Peptide 9013.0035], for which the half-maximal inhibitory concentration (IC50) against A*0206 was determined as 32 nM; on HLA-A*0201 (HLA-A2.1), 148 nM; against A*0203, 37 nM; against A*0202, 16 nM; on A*6802 it was 4500 nM.
The like results for RMLQQLLFV [Peptide 1525.16] were, in that order, 14 nM, 21 nM, 6.8 nM, 21 nM and > 20000 nM.
The corresponding values for RLQLSNGNRTL [Peptide 9013.0286] are > 20000 nM, > 20000 nM, 2840 nM, 443 nM and > 20000 nM.
The like results for FLSGCVISYV [Peptide 1578.32] were, in that order, 67 nM, 43 nM, 7.4 nM, 2.7 nM and 102 nM.
